What was measured:
Assay in all cases: Method of dilutions in a liquid medium (M.I.C.)
Format in all cases: cell-based
[1] = tested on: S. pyogenes; settings: S. pyogenes strains; incubation twenty-four hours at 37° C.; result in words only
Description: (§1) Detail of excipient starch, talc, magnesium stearate. Pharmacological Study of the Products of the Invention Method of Dilutions in a Liquid Medium
(§2) A series of tubes is prepared in which the same quantity of sterile nutritive medium is distributed. Increasing quantities of the product to be studied are distributed into each tube, then each tube is seeded with a bacterial strain. After incubation for twenty-four hours in a heating chamber at 37° C., the growth inhibition is evaluated by transillumination, which allows the minimal inhibitory concentrations (M.I.C.) to be determined, expressed in micrograms/cm^3.

[2] = tested on: E. faecium; settings: E. faecium strains; incubation twenty-four hours at 37° C.; result in words only
Description: as §1, §2

[3] = tested on: S. aureus; settings: S. aureus strains; incubation twenty-four hours at 37° C.; result in words only
Description: as §1, §2

Measured: activity (growth inhibition, minimal inhibitory concentrations M.I.C.)

CCCCCCCCCCCCCCCC(=O)NC[C@@H](O[C@@H]1O[C@H](CN)[C@@H](O)[C@H]1O)[C@@H]1C[C@@H](O)[C@H](n2ccc(=O)[nH]c2=O)O1 [Example 1, 1-[5-O-(5-amino-5-deoxy-β-D-ribofuranosyl)-3,6-dideoxy-6-[(1-oxohexadecyl)amino]-β-D-ribo-hexofuranosyl]-2,4-(1H,3H)-pyrimidinedione]
good activity: all assays above

Source: patent US6875752B2, “Uridine derivatives as antibiotics” (Aventis Pharma S.A., priority 2001, dated 2005)
